{"source": "paper PMC9804055", "about": "“Kinase inhibit region of SOCS3 attenuates IL6‐induced proliferation and astrocytic differentiation of neural stem cells via cross talk between signaling pathways” (CNS Neuroscience & Therapeutics, 2022)", "format_in_all_cases": "cell-based, SD rats", "key": {"NSCs [1]": {"tested_on": "NSCs", "assay": "Ki67 immunocytochemistry, NSC proliferation", "settings": "3 days, mean ± SD", "description": "(§1) NSCs survival and growth were analyzed by using cell counting kit‐8 (#CK04, Dojindo, CCK‐8). NSCs were randomly allocated in the Control, TAT‐scramble, TAT‐KIR, IL‐6, and TAT‐KIR+IL6 groups. All NSCs seeded into 96‐well plates at 5 × 10^4 cells/ml and cultured in growth medium for 24 h. IL‐6 in the concentration of 100 ng/ml was applied to mimic inflammatory condition. Thirty minutes later, TAT‐KIR or TAT‐scramble was added into the culture system. Cell viability of each group was observed by Universal Microplate Spectrophotometer (QuantTM, BioTek) at first, third, and fifth day after peptide administration (Figure 3A). Optical density (OD) values at 450 nm were measured. Immunocytochemistry staining with ki67 (#ab16667, Abcam, 1:300) was used to assess NSC proliferation. Cell cycles were analyzed by FACS at third day after peptide administration. The rates of cells in G0/G1, S, and G2/M were measured, and the proliferation index (PI) {PI = (S + G2/M)/([…] + S + G2/M) × 100%} was calculated, respectively. In each independent experiment, the procedures were carried out in triplicate."}, "NSCs [2]": {"tested_on": "NSCs", "assay": "Cell cycle analysis by FACS, proliferation index", "settings": "third day, mean ± SD, n = 3", "description": "as §1"}, "NSCs [3]": {"tested_on": "NSCs", "assay": "NSCs differentiation, immunostaining of GFAP and β tubulin III positive cells", "settings": "7 DIV, mean ± SD, n = 9", "description": "NSCs at 1 × 10^5 cells/ml were seeded into 24‐well plates allocated randomly in Control, TAT‐KIR, IL‐6, and TAT‐KIR+IL6 groups. After 24 h culture with differentiation media, IL‐6 and TAT‐KIR were added into the medium as above order and reapplied every other day (Figure 4A). Cells were harvested at 7 DIV. Immunocytochemical staining was performed with different antibodies, including GFAP and β Tublin III. […] Then the numbers of GFAP positive and β Tubulin III positive cells were counted, and the percentages of differentiated cells were calculated by using Image J (version 1.61)."}, "p‐STAT3": {"tested_on": "p‐STAT3", "assay": "Western blotting, p-STAT3/STAT3", "settings": "for rate of p-STAT3 to STAT3: differentiation medium, 7 days, mean ± SD, n = 3", "description": "(§2) NSCs at 1 × 10^6 cells/ml in 6‐well plate were treated with IL‐6 and TAT‐KIR as above. Cells were harvested at 3 h, 6 h, 12 h, 24 h, or 7 days after treatment. Cells were suspended in lysis buffer containing 150 μl RIPA (#89900, Pierce) protease and phosphatase inhibitor cocktail (#4693159001 and 04906845001, Roche). Cell lysates were incubated on ice for 20 min and centrifuged at 12,000 rpm for 15 min at 4°C. The proteins in supernatant were separated by electrophoresis with 10%–12% sodium dodecyl sulfate polyacrylamide gel (SDS‐PAGE) and then transferred onto 0.22 μm polyvinylidene difluoride membranes (PVDF; #IPVH00010, Millipore). The membranes were blocked in 5% BSA dissolved in Tris‐buffered saline containing 0.1% Tween‐20 for 2 h at room temperature and then were incubated overnight at 4°C with primary antibodies, including GFAP (#ab7260, Abcam, 1:1000), β Tublin III (#MAB1637, Millipore, 1:1000), and STAT3, p‐STAT3, P38, p‐P38, ERK1/2, p‐ERK1/2, AKT, p‐AKT, JNK2, p‐JNK2(#4904, 9145, 8690, 4511, 4695, 9101, 4685, 4060, 9258, 4668, Cell Signaling, all in 1:1000) and β‐actin (#A01263, Boster Biological Technology, 1:20,000). After washing, the membranes were incubated with the secondary antibodies (HRP conjugated anti‐rabbit or anti‐mouse IgG) for 2 h at room temperature. The membranes were visualized by an enhanced chemiluminescence (ECL) kit. All data were analyzed with Image J (version 1.61)."}, "GFAP": {"tested_on": "GFAP", "assay": "Western blotting, GFAP expression", "settings": "mean ± SD, n = 3", "description": "as §2, with “The membranes were visualized by an enhanced chemiluminescence (ECL) kit.” left out"}, "β tubulin III": {"tested_on": "β tubulin III", "assay": "Western blotting, β tubulin III expression", "settings": "mean ± SD, n = 3", "description": "as §2, with “The membranes were visualized by an enhanced chemiluminescence (ECL) kit.” left out"}, "p‐ERK1/2": {"tested_on": "p‐ERK1/2", "assay": "Western blotting, p-ERK1/2 / ERK1/2", "settings": "mean ± SD, n = 3", "description": "as §2, with “The membranes were visualized by an enhanced chemiluminescence (ECL) kit.” left out"}, "p‐JNK2": {"tested_on": "p‐JNK2", "assay": "Western blotting, p-JNK2/JNK2", "settings": "mean ± SD, n = 3", "description": "as §2"}, "p‐AKT": {"tested_on": "p‐AKT", "assay": "Western blotting, p-AKT/AKT", "settings": "for rate of p-AKT to AKT: mean ± SD, n = 3", "description": "as §2"}, "[4]": {"settings": "substance alone, growth medium, IL-6 100 ng/ml, TAT-KIR 3 μM, n = 9 figures from three experiments"}, "[5]": {"settings": "substance alone, PI = (S + G2/M)/(all phases) × 100%"}, "[6]": {"settings": "substance alone, differentiation medium"}, "[7]": {"settings": "substance alone, 7 days differentiation"}, "[8]": {"settings": "substance alone, 3 h after treatment"}, "[9]": {"settings": "TAT-KIR together with IL-6 100 ng/ml"}, "[10]": {"settings": "TAT-KIR together with IL-6, treatment for 3 h"}, "[11]": {"settings": "TAT-KIR together with IL-6, 7 days differentiation"}}}
{"substance": "IL‐6: inflammatory cytokine, 100 ng/ml applied to mimic inflammatory condition [reference compound]", "values": [{"measurement": "percentage of Ki67 positive proliferating cells (Ki67/DAPI)", "setting": "NSCs [1]; [4]", "value": "54.33 ± 10.29", "unit": "%"}, {"measurement": "proliferation index (PI)", "setting": "NSCs [2]; [5]", "value": "34.61 ± 4.12", "unit": "%"}, {"measurement": "percentage of cells in G0/G1 phase", "setting": "NSCs [2]; substance alone", "value": "65.39 ± 4.12", "unit": "%"}, {"measurement": "percentage of cells in S phase", "setting": "NSCs [2]; substance alone", "value": "28.14 ± 2.79", "unit": "%"}, {"measurement": "percentage of GFAP positive cells (astrocytic differentiation)", "setting": "NSCs [3]; [6]", "value": "45.72 ± 7.50", "unit": "%"}, {"measurement": "percentage of β tubulin III positive cells (neuronal differentiation)", "setting": "NSCs [3]; [6]", "value": "32.33 ± 5.68", "unit": "%"}, {"measurement": "rate of p-STAT3 to STAT3", "setting": "p‐STAT3; substance alone", "value": "0.88 ± 0.093"}, {"measurement": "GFAP expression (Western blotting)", "setting": "GFAP; [7]", "value": "1.30 ± 0.127"}, {"measurement": "β tubulin III expression (Western blotting)", "setting": "β tubulin III; [7]", "value": "1.22 ± 0.044"}, {"measurement": "rate of p-ERK1/2 to ERK1/2", "setting": "p‐ERK1/2; [7]", "value": "0.75 ± 0.070"}, {"measurement": "p-JNK/JNK", "setting": "p‐JNK2; [8]", "value": "0.54 ± 0.056"}, {"measurement": "p-JNK/JNK", "setting": "p‐JNK2; substance alone, 6 h after treatment", "value": "0.67 ± 0.062"}, {"measurement": "rate of p-JNK2 to JNK2", "setting": "p‐JNK2; [7]", "value": "0.63 ± 0.049"}, {"measurement": "rate of p-AKT to AKT", "setting": "p‐AKT; [7]", "value": "1.05 ± 0.081"}]}
{"substance": "RKKRRQRRR‐LR‐LKTFSSKSEYQL‐V [TAT‐KIR]", "values": [{"measurement": "percentage of Ki67 positive proliferating cells (Ki67/DAPI)", "setting": "NSCs [1]; TAT-KIR 3 μM applied together with IL-6 100 ng/ml, n = 9", "value": "41.33 ± 7.72", "unit": "%"}, {"measurement": "percentage of Ki67 positive proliferating cells (Ki67/DAPI)", "setting": "NSCs [1]; [4]", "value": "20.67 ± 3.74", "unit": "%"}, {"measurement": "percentage of cells in G0/G1 phase", "setting": "NSCs [2]; [9]", "value": "73.18 ± 3.04", "unit": "%"}, {"measurement": "percentage of cells in S phase", "setting": "NSCs [2]; [9]", "value": "19.31 ± 3.32", "unit": "%"}, {"measurement": "proliferation index (PI)", "setting": "NSCs [2]; [9]", "value": "26.82 ± 3.04", "unit": "%"}, {"measurement": "proliferation index (PI)", "setting": "NSCs [2]; [5]", "value": "14.34 ± 1.98", "unit": "%"}, {"measurement": "percentage of cells in G0/G1 phase", "setting": "NSCs [2]; substance alone", "value": "85.66 ± 1.98", "unit": "%"}, {"measurement": "percentage of cells in S phase", "setting": "NSCs [2]; substance alone", "value": "9.56 ± 0.22", "unit": "%"}, {"measurement": "percentage of GFAP positive cells (astrocytic differentiation)", "setting": "NSCs [3]; [9]", "value": "36.78 ± 6.81", "unit": "%"}, {"measurement": "percentage of β tubulin III positive cells (neuronal differentiation)", "setting": "NSCs [3]; [9]", "value": "30.33 ± 4.39", "unit": "%"}, {"measurement": "percentage of GFAP positive cells (astrocytic differentiation)", "setting": "NSCs [3]; [6]", "value": "30.67 ± 4.66", "unit": "%"}, {"measurement": "percentage of β tubulin III positive cells (neuronal differentiation)", "setting": "NSCs [3]; [6]", "value": "26.78 ± 4.79", "unit": "%"}, {"measurement": "rate of p-STAT3 to STAT3", "setting": "p‐STAT3; [9]", "value": "0.61 ± 0.025"}, {"measurement": "p-STAT3 expression of IL-6-induced NSCs", "setting": "p‐STAT3; [10]", "value": "dramatically reduced"}, {"measurement": "rate of p-STAT3 to STAT3", "setting": "p‐STAT3; substance alone", "value": "did not affect"}, {"measurement": "GFAP expression (Western blotting)", "setting": "GFAP; [11]", "value": "0.88 ± 0.091"}, {"measurement": "β tubulin III expression (Western blotting)", "setting": "β tubulin III; [11]", "value": "1.21 ± 0.025"}, {"measurement": "rate of p-ERK1/2 to ERK1/2", "setting": "p‐ERK1/2; [11]", "value": "0.68 ± 0.041"}, {"measurement": "rate of p-JNK2 to JNK2", "setting": "p‐JNK2; [11]", "value": "0.63 ± 0.042"}, {"measurement": "p-JNK/JNK", "setting": "p‐JNK2; [8]", "value": "0.30 ± 0.040"}, {"measurement": "p-JNK/JNK", "setting": "p‐JNK2; substance alone, 12 h after treatment", "value": "0.50 ± 0.090"}, {"measurement": "rate of p-JNK2 to JNK2", "setting": "p‐JNK2; [7]", "value": "increased trend"}, {"measurement": "rate of p-AKT to AKT", "setting": "p‐AKT; [11]", "value": "0.87 ± 0.037"}, {"measurement": "p-AKT expression of IL-6-induced NSCs", "setting": "p‐AKT; [10]", "value": "dramatically reduced"}]}
